According to patent publication US8778919B2, “Cyclic anilino—pyridinotriazines” (Janssen Pharmaceutica NV, priority 2005, dated 2014):

Key:
Assay type in all cases: biochemical
GSK-3β = GSK-3β (Homo sapiens, UniProt P49841); experiment: GSK-3 kinase assay (C1), GSK-3β; conditions: 1 μM ATP; for IC50: read-out: C1 Score β
Outline: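 Radiometric SPA at room temperature in 25 mM Tris pH 7.4 with 10 mM MgCl2, 1 mM DTT, 5.7 ng/μl GSK-3β or 0.25 ng/μl GSK-3α, 5 μM biotinylated CREB peptide and 1 μM ATP plus ^33P-ATP. Stopped after 1 h; IC50 from dose-response versus no-compound control, reported as pIC50 score bands.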

cSRC (h) = cSRC (h) (Homo sapiens, UniProt P12931); experiment: Kinase profiling C3.9 cSRC human; conditions: test concentration of 10^−6 M
Chain of cSRC (h) (P12931 whole entry): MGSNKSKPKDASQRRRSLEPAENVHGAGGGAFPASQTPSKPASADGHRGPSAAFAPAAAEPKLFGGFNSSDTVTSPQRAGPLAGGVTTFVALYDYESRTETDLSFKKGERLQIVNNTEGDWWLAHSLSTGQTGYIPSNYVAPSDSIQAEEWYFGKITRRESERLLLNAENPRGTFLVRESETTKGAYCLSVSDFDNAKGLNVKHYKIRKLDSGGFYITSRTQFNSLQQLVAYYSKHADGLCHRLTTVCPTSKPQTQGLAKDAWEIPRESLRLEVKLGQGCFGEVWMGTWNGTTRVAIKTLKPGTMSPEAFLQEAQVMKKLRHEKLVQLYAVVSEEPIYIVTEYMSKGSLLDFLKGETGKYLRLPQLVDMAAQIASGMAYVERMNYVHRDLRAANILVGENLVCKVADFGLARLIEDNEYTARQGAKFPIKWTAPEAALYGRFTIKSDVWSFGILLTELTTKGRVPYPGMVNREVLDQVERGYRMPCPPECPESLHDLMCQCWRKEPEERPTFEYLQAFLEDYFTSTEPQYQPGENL
Description: (§1) The in vitro inhibition of a panel of kinases was assessed using either the glass-fiber filter technology as described by Davies, S. P. et al., Biochem J. (2000), 351; p. 95-105. In the glass-fiber filter technology the activity of the kinase of interest is measured using an appropriate substrate that is incubated with the aforementioned kinase protein in the presence of (^33P) radiolabeled ATP. (^33P) Phosporylation of the substrate is subsequently measured as radioactivity bound on a glassfiber-filter.
(§2) All kinases are pre-diluted to a 10× working concentration prior to addition into the assay. The composition of the dilution buffer for each kinase is detailed below.
(§3) All substrates are dissolved and diluted to working stocks in de-ionised water, apart from histone H1 that is stored in 10× working stock in 20 mM MOPS pH 7.4.
(§4) In a final reaction volume of 25 μl, cSRC (h) (5-10 mU) is incubated with 8 mM MOPS pH 7.0, 0.2 mM EDTA, 250 μM KVEKIGEGTYGVVYK (Cdc2 peptide), 10 mM MgAcetate and [γ-^33P-ATP] (specific activity approx. 500 cpm/pmol, concentration as required). The reaction is initiated by the addition of the MgATP mix. After incubation for 40 minutes at room temperature, the reaction is stopped by the addition of 5 μl of a 3% phosphoric acid solution.
10 μl of the reaction is then spotted onto a P30 filtermat and washed three times for 5 minutes in 75 mM phosphoric acid and once in methanol prior to drying and scintillation counting.

Aurora-A (h) = target: T1, Aurora-A (h) (Homo sapiens, UniProt O14965); experiment: Kinase profiling C3.1 Aurora-A human; conditions: test concentration of 10^−6 M
T1 sequence (O14965 1-403): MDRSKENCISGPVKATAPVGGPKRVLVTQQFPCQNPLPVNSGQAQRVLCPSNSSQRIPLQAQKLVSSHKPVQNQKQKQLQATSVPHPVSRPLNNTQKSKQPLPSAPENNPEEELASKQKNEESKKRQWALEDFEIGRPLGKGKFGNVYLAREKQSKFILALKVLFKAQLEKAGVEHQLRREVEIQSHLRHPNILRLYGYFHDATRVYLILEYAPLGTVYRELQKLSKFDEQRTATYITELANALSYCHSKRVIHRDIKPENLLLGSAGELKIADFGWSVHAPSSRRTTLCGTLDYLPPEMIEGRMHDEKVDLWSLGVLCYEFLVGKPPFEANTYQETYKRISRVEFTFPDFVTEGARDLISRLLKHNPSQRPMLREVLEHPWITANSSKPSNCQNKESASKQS
Description: as §1, §2, §3
as §4, with “Aurora-A” for “cSRC”, “200” for “250”, “LRRASLG (Kemptide),” for “KVEKIGEGTYGVVYK (Cdc2 peptide),”, “solution. 10 μl of the reaction is then spotted onto a P30 filtermat and washed three times for 5 minutes in 50 mM phosphoric acid and once in methanol prior to drying and scintillation counting.” for “solution.”

Yes (h) = Yes (h) (Homo sapiens, UniProt P07947); experiment: Kinase profiling C3.10 Yes human; conditions: test concentration of 10^−6 M
Chain of Yes (h) (P07947 whole entry): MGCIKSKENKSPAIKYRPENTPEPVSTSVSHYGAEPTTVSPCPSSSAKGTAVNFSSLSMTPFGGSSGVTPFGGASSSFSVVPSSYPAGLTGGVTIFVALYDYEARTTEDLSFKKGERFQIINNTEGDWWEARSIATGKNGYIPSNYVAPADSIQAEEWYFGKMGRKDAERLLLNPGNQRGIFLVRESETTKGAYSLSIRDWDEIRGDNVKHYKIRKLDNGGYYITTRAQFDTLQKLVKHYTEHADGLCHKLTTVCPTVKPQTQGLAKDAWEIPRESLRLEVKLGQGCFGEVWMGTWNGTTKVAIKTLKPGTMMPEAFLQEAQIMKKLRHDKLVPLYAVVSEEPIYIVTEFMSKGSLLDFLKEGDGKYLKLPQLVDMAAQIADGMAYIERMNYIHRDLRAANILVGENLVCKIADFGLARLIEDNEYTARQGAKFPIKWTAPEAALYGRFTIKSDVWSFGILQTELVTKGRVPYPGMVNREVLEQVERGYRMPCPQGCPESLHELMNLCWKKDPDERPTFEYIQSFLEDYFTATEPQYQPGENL
Description: as §1, §2, §3
as §4, with “Yes” for “cSRC”, “0.1 mg/ml poly(Glu, Tyr) 4:1,” for “250 μM KVEKIGEGTYGVVYK (Cdc2 peptide),”, “solution. 10 μl of the reaction is then spotted onto a Filtermat A and washed three times for 5 minutes in 75 mM phosphoric acid and once in methanol prior to drying and scintillation counting.” for “solution.”

CDK7/cyclinH/MAT1 (h) = CDK7/cyclinH/MAT1 (h) (Homo sapiens, UniProt P50613); experiment: Kinase profiling C3.8 CDK7/cyclinH/MAT1 human; conditions: CDK7/cyclinH/MAT1, test concentration of 10^−6 M
Chain of CDK7/cyclinH/MAT1 (h) (P50613 whole entry): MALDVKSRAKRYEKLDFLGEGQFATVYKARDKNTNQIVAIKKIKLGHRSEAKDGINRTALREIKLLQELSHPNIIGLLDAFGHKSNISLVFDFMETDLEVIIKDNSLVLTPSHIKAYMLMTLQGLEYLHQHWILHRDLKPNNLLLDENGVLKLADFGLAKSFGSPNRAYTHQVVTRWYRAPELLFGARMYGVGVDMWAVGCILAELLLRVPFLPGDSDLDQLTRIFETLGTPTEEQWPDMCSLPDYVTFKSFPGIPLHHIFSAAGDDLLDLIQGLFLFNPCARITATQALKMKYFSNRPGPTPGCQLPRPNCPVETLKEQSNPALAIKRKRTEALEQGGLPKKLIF
Chain of CDK7/cyclinH/MAT1 (h) (P51946 whole entry partner): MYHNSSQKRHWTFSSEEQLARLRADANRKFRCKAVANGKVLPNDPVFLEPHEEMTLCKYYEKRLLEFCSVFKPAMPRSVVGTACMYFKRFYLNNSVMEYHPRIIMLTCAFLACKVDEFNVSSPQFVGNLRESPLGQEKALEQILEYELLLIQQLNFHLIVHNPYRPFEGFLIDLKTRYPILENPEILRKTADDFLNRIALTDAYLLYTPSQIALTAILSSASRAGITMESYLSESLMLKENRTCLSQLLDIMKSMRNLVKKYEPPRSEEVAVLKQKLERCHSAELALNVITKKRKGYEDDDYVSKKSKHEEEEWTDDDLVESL
Chain of CDK7/cyclinH/MAT1 (h) (P51948 whole entry partner): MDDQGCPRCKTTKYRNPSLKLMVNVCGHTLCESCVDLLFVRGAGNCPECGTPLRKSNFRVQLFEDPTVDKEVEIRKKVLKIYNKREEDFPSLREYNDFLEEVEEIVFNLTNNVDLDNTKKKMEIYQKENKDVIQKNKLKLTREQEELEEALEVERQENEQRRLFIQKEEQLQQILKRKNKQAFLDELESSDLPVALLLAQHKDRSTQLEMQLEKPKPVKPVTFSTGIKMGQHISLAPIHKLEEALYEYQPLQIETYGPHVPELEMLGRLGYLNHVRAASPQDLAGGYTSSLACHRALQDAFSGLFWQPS
Outline: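 Human CDK7/cyclinH/MAT1 (5-10 mU) incubated 40 min at room temperature in 8 mM MOPS pH 7.0, 0.2 mM EDTA, 10 mM Mg acetate, 500 μM peptide substrate and [γ-^33P]ATP. Stopped with phosphoric acid; substrate phosphorylation measured by filter binding and scintillation counting.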

Chain of GSK-3β (P49841 whole entry, species assumed): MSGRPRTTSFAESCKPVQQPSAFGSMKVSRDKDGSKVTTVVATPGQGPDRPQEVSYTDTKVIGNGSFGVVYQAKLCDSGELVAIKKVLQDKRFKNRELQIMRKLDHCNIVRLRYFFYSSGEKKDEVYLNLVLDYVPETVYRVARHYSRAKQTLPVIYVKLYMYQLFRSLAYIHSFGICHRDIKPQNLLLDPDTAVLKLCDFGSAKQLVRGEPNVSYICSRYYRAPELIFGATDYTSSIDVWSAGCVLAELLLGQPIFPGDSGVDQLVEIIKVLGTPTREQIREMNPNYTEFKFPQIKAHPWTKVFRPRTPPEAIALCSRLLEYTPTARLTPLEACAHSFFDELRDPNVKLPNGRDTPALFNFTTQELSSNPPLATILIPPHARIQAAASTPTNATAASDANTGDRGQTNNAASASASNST

SMILES | IC50 (GSK-3β) | C3.9 score (cSRC (h)) | C3.1 score (Aurora-A (h)) | C3.10 score (Yes (h)) | C3.8 score (CDK7/cyclinH/MAT1 (h)) | C1 Score β (GSK-3β)
CN1CC(=O)NCC#Cc2cc(ccn2)-c2ncnc(n2)Nc2cccc(c2)C1 [Compound 1] | < 10 nM | 3 (Score 3 = 60-80% inhibition) | 1 (Score 1 = 10-30% inhibition) | 3 (Score 3 = 60-80% inhibition) | 4 (Score 4 = >80% inhibition) | 
CN1CC(=O)NC/C(Cl)=C/c2cc(ccn2)-c2ncnc(n2)Nc2cccc(c2)C1 [Compound 2] | < 10 nM | 4 (Score 4 = >80% inhibition) | 2 (Score 2 = 30-60% inhibition) | 4 (Score 4 = >80% inhibition) | 3 (Score 3 = 60-80% inhibition) | 
CN1CCC(=O)NCCCc2cc(ccn2)-c2ncnc(n2)Nc2cccc(c2)C1 [Compound 3] | 10 to 100 nM | 2 (Score 2 = 30-60% inhibition) | 1 (Score 1 = 10-30% inhibition) | 2 (Score 2 = 30-60% inhibition) | 4 (Score 4 = >80% inhibition) | 
CN1CCCc2cc(ccn2)-c2ncnc(n2)Nc2cccc(c2)CNC(=O)C1 [Compound 7] | < 10 nM | 2 (Score 2 = 30-60% inhibition) | 1 (Score 1 = 10-30% inhibition) | 2 (Score 2 = 30-60% inhibition) | 2 (Score 2 = 30-60% inhibition) | 
CN1CC(=O)NCCCc2cc(ccn2)-c2ncnc(n2)Nc2cccc(c2)C1 [Compound 8] |  |  |  |  | 2 (Score 2 = 30-60% inhibition) | 4 (Score 4=pIC50 value>8)
O=C1CN2CCN(CC2)Cc2cccc(c2)Nc2ncnc(n2)-c2ccnc(c2)CCCN1 [Compound 9] |  |  |  |  | 2 (Score 2 = 30-60% inhibition) | 4 (Score 4=pIC50 value>8)
CN1CC(=O)NCCCc2cc(ccn2)-c2ncnc(n2)Nc2cccc(c2)C1 [Compound 10] | < 10 nM | 2 (Score 2 = 30-60% inhibition) | 1 (Score 1 = 10-30% inhibition) | 2 (Score 2 = 30-60% inhibition) | 4 (Score 4 = >80% inhibition) | 
CN1CCN(CCN2CCC(=O)NCCCc3cc(ccn3)-c3ncnc(n3)Nc3cccc(c3)C2)CC1 [Compound 11] | 100 to 1000 nM | 1 (Score 1 = 10-30% inhibition) | 1 (Score 1 = 10-30% inhibition) | 1 (Score 1 = 10-30% inhibition) | 1 (Score 1 = 10-30% inhibition) | 
O=C1NCCCc2cc(ccn2)-c2ncnc(n2)Nc2cccc(c2)CN2CCCC12 (centres unmarked) [Compound 12] | 100 to 1000 nM | 2 (Score 2 = 30-60% inhibition) | 1 (Score 1 = 10-30% inhibition) | 2 (Score 2 = 30-60% inhibition) | 3 (Score 3 = 60-80% inhibition) | 
CN1CCCC(=O)NCCCc2cc(ccn2)-c2ncnc(n2)Nc2cccc(c2)C1 [Compound 13] | 10 to 100 nM | 2 (Score 2 = 30-60% inhibition) | 2 (Score 2 = 30-60% inhibition) | 1 (Score 1 = 10-30% inhibition) | 2 (Score 2 = 30-60% inhibition) | 
O=C1NCCCc2cc(ccn2)-c2ncnc(n2)Nc2cccc(c2)CN2C[C@H](O)C[C@@H]12 [Compound 14] | 10 to 100 nM | 2 (Score 2 = 30-60% inhibition) | 2 (Score 2 = 30-60% inhibition) | 1 (Score 1 = 10-30% inhibition) | 2 (Score 2 = 30-60% inhibition) | 
O=C1NCCCc2cc(ccn2)-c2ncnc(n2)Nc2cccc(c2)CN2CCCC1C2 (centres unmarked) [Compound 15] | 10 to 100 nM | 1 (Score 1 = 10-30% inhibition) | 1 (Score 1 = 10-30% inhibition) | 1 (Score 1 = 10-30% inhibition) | 2 (Score 2 = 30-60% inhibition) | 
CCN1CCCc2cc(ccn2)-c2ncnc(n2)Nc2cccc(c2)CCNC(=O)C1 [Compound 30] | < 10 nM |  |  |  | 3 (Score 3 = 60-80% inhibition) | 
CN1CC(=O)NCCCc2cc(ccn2)-c2ncnc(n2)Nc2cc(Cl)cc(c2)C1 [Compound 33] | < 10 nM |  |  |  | 3 (Score 3 = 60-80% inhibition) | 
CCN1CC(=O)NCCCc2cc(ccn2)-c2ncnc(n2)Nc2cc(Cl)cc(c2)C1 [Compound 34] | < 10 nM |  |  |  | 2 (Score 2 = 30-60% inhibition) | 
O=C1CCN2CCN(CC2)Cc2cccc(c2)Nc2ncnc(n2)-c2ccnc(c2)CCCN1 [Compound 35] | 10 to 100 nM | 2 (Score 2 = 30-60% inhibition) | 1 (Score 1 = 10-30% inhibition) | 2 (Score 2 = 30-60% inhibition) | 4 (Score 4 = >80% inhibition) | 
O=C1CN2CCN(CC2)Cc2cccc(c2)Nc2ncnc(n2)-c2ccnc(c2)CCCN1 [Compound 36] | < 10 nM | 1 (Score 1 = 10-30% inhibition) | 1 (Score 1 = 10-30% inhibition) | 1 (Score 1 = 10-30% inhibition) | 2 (Score 2 = 30-60% inhibition) | 
O=C1CN2CCN(CC2)Cc2cc(Cl)cc(c2)Nc2ncnc(n2)-c2ccnc(c2)CCCN1 [Compound 41] | < 10 nM |  |  |  | 2 (Score 2 = 30-60% inhibition) | 
O=C1NCCCc2cccc(c2)-c2ncnc(n2)Nc2cccc(c2)CN[C@H]1CO [Compound 46] |  |  |  |  | 1 (Score 1 = 10-30% inhibition) | 
CCN1CC(=O)NCCCc2cccc(c2)-c2ncnc(n2)Nc2cccc(c2)C1 [Compound 54] |  | 1 (Score 1 = 10-30% inhibition) |  | 2 (Score 2 = 30-60% inhibition) | 1 (Score 1 = 10-30% inhibition) | 
O=C1CN2CCN(CC2)Cc2cccc(c2)Nc2ncnc(n2)-c2ccc(F)c(c2)CCCN1 [Compound 66] |  |  |  | 1 (Score 1 = 10-30% inhibition) | 1 (Score 1 = 10-30% inhibition) | 
O=C1NCCCc2cc(ccc2F)-c2ncnc(n2)Nc2cc(Cl)cc(c2)CN[C@H]1CO [Compound 71] |  | 4 (Score 4 = >80% inhibition) | 2 (Score 2 = 30-60% inhibition) | 4 (Score 4 = >80% inhibition) | 4 (Score 4 = >80% inhibition) | 
O=C1NCCCc2cncc(c2)-c2ncnc(n2)Nc2cccc(c2)CN[C@H]1CO [Compound 81] |  | 1 (Score 1 = 10-30% inhibition) | 1 (Score 1 = 10-30% inhibition) | 1 (Score 1 = 10-30% inhibition) | 1 (Score 1 = 10-30% inhibition) | 
